{"source": "paper PMC6844310", "about": "“Deletion of glutaredoxin promotes oxidative tolerance and intracellular infection in Listeria monocytogenes” (Virulence, 2019)", "target": "T1, Grx (Lmo2344) (Listeria monocytogenes, UniProt Q8Y4T8)", "T1 construct": "CHYC active motif", "T1 sequence (Q8Y4T8 1-88)": "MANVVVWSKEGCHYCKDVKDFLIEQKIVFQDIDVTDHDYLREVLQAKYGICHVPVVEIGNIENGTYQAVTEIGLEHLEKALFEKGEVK", "assay": "insulin disulfide reduction, turbidity at […] nm", "type": "biochemical", "conditions": "electron donor, 1 mM DTT; 0.15 mM human insulin, pH 7.0, 2 mM EDTA; DTT also reduces insulin non-enzymatically"}
{"smiles": "OC(CS)C(O)CS", "note": "(stereo not shown) [DTT]", "values": [{"measurement": "insulin disulfide reduction, turbidity at 650 nm", "value": "Using DTT as an electron donor, the recombinant Lmo2344 is able to catalyze the reduction"}]}
